Measured values: PubChem BioAssay AID1918940 (Molecular Pharmacology Branch, DTP, NCI, 2023)

System: NCI-H211 complex spheroid viability
Assay: Anticancer human tumor NCI-H211 cell line growth inhibition [LSD1];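 also: luminescent viability read after seven days of drug exposure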;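 as to viability, T/C: 100% = DMSO vehicle control viability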
Conditions: for IC50: curve of first compound; for viability, T/C: stronger effect = lower value
Outline: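 Multicellular complex spheroids of tumor cells with human endothelial cells (HUVEC) and mesenchymal stem cells; the LSD1 inhibitor iadademstat was combined with standard-of-care or investigational agents. Top concentration at or near clinical Cmax, half-log dilutions; final DMSO ≤0.25%.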

[1] = second compound 0.1 µM, first compound 0.00949 µM
[2] = second compound 0.1 µM, first compound 0.03 µM
[3] = second compound 0.1 µM, first compound 0.0949 µM
[4] = second compound 0.1 µM, first compound 0.3 µM
[5] = second compound 0.1 µM, first compound 0.949 µM
[6] = second compound 0.1 µM, first compound 3 µM
[7] = second compound 0.316 µM, first compound 0.00949 µM
[8] = second compound 0.316 µM, first compound 0.03 µM
[9] = second compound 0.316 µM, first compound 0.0949 µM
[10] = second compound 0.316 µM, first compound 0.3 µM
[11] = second compound 0.316 µM, first compound 0.949 µM
[12] = second compound 0.316 µM, first compound 3 µM
[13] = second compound 1 µM, first compound 0.00949 µM
[14] = second compound 1 µM, first compound 0.03 µM
[15] = second compound 1 µM, first compound 0.0949 µM
[16] = second compound 1 µM, first compound 0.3 µM
[17] = second compound 1 µM, first compound 0.949 µM
[18] = second compound 1 µM, first compound 3 µM
[19] = second compound 3.16 µM, first compound 0.00949 µM
[20] = second compound 3.16 µM, first compound 0.03 µM
[21] = second compound 3.16 µM, first compound 0.0949 µM
[22] = second compound 3.16 µM, first compound 0.3 µM
[23] = second compound 3.16 µM, first compound 0.949 µM
[24] = second compound 3.16 µM, first compound 3 µM
[25] = second compound 10 µM, first compound 0.00949 µM
[26] = second compound 10 µM, first compound 0.03 µM
[27] = second compound 10 µM, first compound 0.0949 µM
[28] = second compound 10 µM, first compound 0.3 µM
[29] = second compound 10 µM, first compound 0.949 µM
[30] = second compound 10 µM, first compound 3 µM

NS(=O)(=O)OCC1CC(n2ccc3c(NC4CCc5ccccc54)ncnc32)CC1O (stereo not given) + NC1CC1c1ccc(-c2cccc(O)c2)cc1
IC50 (second compound 0.1 µM): < 9.49 nM | IC50 (second compound 0.316 µM): < 9.49 nM | IC50 (second compound 1 µM): < 9.49 nM | IC50 (second compound 3.16 µM): < 9.49 nM | IC50 (second compound 10 µM): < 9.49 nM | viability, T/C [1]: 21.2% | viability, T/C [2]: 9.36% | viability, T/C [3]: 4.3% | viability, T/C [4]: 1.71% | viability, T/C [5]: 1.1% | viability, T/C [6]: 0.94% | viability, T/C [7]: 20.3% | viability, T/C [8]: 13.6% | viability, T/C [9]: 2.93% | viability, T/C [10]: 1.2% | viability, T/C [11]: 1.09% | viability, T/C [12]: 0.81% | viability, T/C [13]: 20.4% | viability, T/C [14]: 10.4% | viability, T/C [15]: 3.57% | viability, T/C [16]: 1.64% | viability, T/C [17]: 1.11% | viability, T/C [18]: 0.79% | viability, T/C [19]: 26.8% | viability, T/C [20]: 13.2% | viability, T/C [21]: 5.17% | viability, T/C [22]: 2.04% | viability, T/C [23]: 0.97% | viability, T/C [24]: 0.81% | viability, T/C [25]: 27.4% | viability, T/C [26]: 12% | viability, T/C [27]: 5.24% | viability, T/C [28]: 1.75% | viability, T/C [29]: 0.61% | viability, T/C [30]: 0.57%

O=C(C=Cc1cccc(S(=O)(=O)Nc2ccccc2)c1)NO + NC1CC1c1ccc(-c2cccc(O)c2)cc1
IC50 (second compound 0.1 µM): < 9.49 nM | IC50 (second compound 0.316 µM): < 9.49 nM | IC50 (second compound 1 µM): < 9.49 nM | IC50 (second compound 3.16 µM): < 9.49 nM | IC50 (second compound 10 µM): < 9.49 nM | viability, T/C [1]: 14.7% | viability, T/C [2]: 8.14% | viability, T/C [3]: 7.87% | viability, T/C [4]: 3.8% | viability, T/C [5]: 0.63% | viability, T/C [6]: 0.14% | viability, T/C [7]: 13.9% | viability, T/C [8]: 7.23% | viability, T/C [9]: 7.38% | viability, T/C [10]: 4.67% | viability, T/C [11]: 0.66% | viability, T/C [12]: 0.16% | viability, T/C [13]: 13.9% | viability, T/C [14]: 8.11% | viability, T/C [15]: 9.23% | viability, T/C [16]: 4.38% | viability, T/C [17]: 0.39% | viability, T/C [18]: 0.17% | viability, T/C [19]: 15.4% | viability, T/C [20]: 7.28% | viability, T/C [21]: 7.21% | viability, T/C [22]: 4.21% | viability, T/C [23]: 0.29% | viability, T/C [24]: 0.16% | viability, T/C [25]: 13.5% | viability, T/C [26]: 6.43% | viability, T/C [27]: 7.11% | viability, T/C [28]: 3.82% | viability, T/C [29]: 0.24% | viability, T/C [30]: 0.27%
